Source: the NIST ThermoML archive (doi:10.1016/j.jct.2012.01.007)
“And” between values parts separate entries of the source, which are not always exact repeats. Identical values can stand only once.

Assay: osmotic coefficient (dimensionless); mn = molality of the nth substance listed, in mol/kg
Settings: 298.15 K, Liquid, isopiestic method

CCCC[n+]1ccc(N(C)C)cc1.F[B-](F)(F)F [4-(dimethylamino)-1-butylpyridinium tetrafluoroborate] + CCO
Settings | osmotic coefficient
m1 = 0 | 1
m1 = 0.3225 | 0.606
m1 = 0.333 | 0.526
m1 = 0.3357 | 0.6
m1 = 0.3459 | 0.506
m1 = 0.4422 | 0.468
m1 = 0.4806 | 0.429 and 0.445
m1 = 0.4942 | 0.418
m1 = 0.5101 | 0.42 and 0.404
m1 = 0.6548 | 0.383
m1 = 0.7459 | 0.394
m1 = 0.8064 | 0.365
m1 = 0.9658 | 0.343
m1 = 1.075 | 0.327
m1 = 1.154 | 0.339
m1 = 1.195 | 0.318
m1 = 1.289 | 0.325
m1 = 1.393 | 0.322
m1 = 1.613 | 0.321
m1 = 1.945 | 0.304
m1 = 2.716 | 0.316
m1 = 3.676 | 0.336
m1 = 3.763 | 0.326
m1 = 5.468 | 0.283
m1 = 7.248 | 0.218

CCCCCC[n+]1ccc(N(C)C)cc1.F[B-](F)(F)F [4-(dimethylamino)-1-hexylpyridinium tetrafluoroborate] + CCO
Settings | osmotic coefficient
m1 = 0 | 0.999
m1 = 0.3863 | 0.523
m1 = 0.4915 | 0.435
m1 = 0.6139 | 0.417
m1 = 0.7149 | 0.447
m1 = 0.7716 | 0.429
m1 = 1.225 | 0.413 and 0.431
m1 = 1.39 | 0.375
m1 = 1.495 | 0.39
m1 = 1.778 | 0.35
m1 = 1.799 | 0.409
m1 = 2.283 | 0.376
m1 = 2.753 | 0.378
m1 = 3.718 | 0.351
m1 = 4.128 | 0.37
m1 = 5.581 | 0.384

CCCCC[n+]1ccc(N(C)C)cc1.F[B-](F)(F)F [4-(dimethylamino)-1-pentylpyridinium tetrafluoroborate] + CCO
Settings | osmotic coefficient
m1 = 0 | 0.999
m1 = 0.4148 | 0.513
m1 = 0.4808 | 0.455
m1 = 0.5469 | 0.468
m1 = 0.568 | 0.397
m1 = 0.6869 | 0.376
m1 = 0.8468 | 0.359
m1 = 0.9582 | 0.335
m1 = 1.291 | 0.38
m1 = 1.757 | 0.331
m1 = 1.899 | 0.327
m1 = 2.515 | 0.327
m1 = 4.304 | 0.283
m1 = 5.313 | 0.288
m1 = 7.334 | 0.301
